Reference: patent US20080026073A1, “METHOD AND COMPOSITION FOR LITHIUM ADDITIVE IN TREATMENT OF GLUTAMATE TOXICITY” (priority 2006, published 2008)

Test system: retinal ganglion cells
Assay: NMDA-induced glutamate toxicity mouse model for glaucoma: count of surviving retinal ganglion cells after oral feeding
Format: in vivo, mice
Conditions: for survival efficacy (percent of retinal ganglion cells that survive relative to no treatment): Example 3, FIG. 3, separate mouse pools

SMILES: O=C([O-])c1cc(=O)[nH]c(=O)[nH]1.[Li+] [Lithium, lithium orotate]
- increase in the surviving ganglion cells (Example 1, FIG. 1, mice, oral ingestion, human equivalent dosage Lithium 5.8 mg lithium orotate per day, St. Johns Wort 2-4 grams per day): about 15%
- survival rate of retinal ganglion cells (Example 2, FIG. 2, mice, gavage eight days, intravitreal NMDA 150 mM 0.5 microliter after six days, Li orotate 63 μg/day, herb 32 mg per mouse per day): about 15%
- survival efficacy (percent of retinal ganglion cells that survive relative to no treatment) (1/5th the dosage, human equivalent 1.16 mg lithium orotate): approximately 13%
- survival efficacy (percent of retinal ganglion cells that survive relative to no treatment) (5 times the dosage, human equivalent 29 mg lithium orotate): approximately 8%
